From US20050004029A1, “Methods and compositions for treating vascular leak using hepatocyte growth factor” (priority 2001, published 2005) come the findings set out here.

For assay [1], the system named is PKCα. The experiment in a line: PKCα activation (phospho-PKC immunoreactivity, membrane translocation). It is filed as cell-based, human. Particulars: after HGF. The procedure: Endothelial cell monolayers grown to confluence in 12-well plates and challenged with HGF were lysed with 100 μl of 2×SDS sample buffer, and cell lysates were transferred into microcentrifuge tubes and boiled for 5 min. After a brief spin, proteins from 10 μl cell lysates were separated on 12% SDS-PAGE and transferred to nitrocellulose (Schleicher & Schuell, Keene, N.H.) (30V, 18 h). After blocking with PBST (PBS with 0.1% Tween 20) containing 5% non-fat milk for 1 hr, nitrocellulose blots were reacted with primary antibodies diluted in PBST containing 5% BSA for 1 hr, washed with PBST (3×10 min), incubated with peroxidase-conjugated secondary antibodies (goat anti-rabbit IgG, 1:10,000 dilution, Sigma; or goat anti-mouse IgG, 1:10,000 dilution, Bio-Rad Labs, Richmond, Calif.) diluted in PBST with 5% non-fat milk for 1 hr and again washed with PBST (3×10 min). Finally, immunoreactive proteins were detected using ECL. The relative intensities of the protein bands were quantified by scanning densitometry.
Endothelial cells were fractionated into cytosolic, membrane, and nuclear/cytoskeleton fractions as described in Borbiev, T. et al. (2001) Am. J. Physiol. Lung Cell. Mol. Physiol. 280:L983-L990. […]

Assay [2] relates to human endothelial monolayers. Kind of assay: F-actin immunofluorescent microscopy (cortical actin ring). It is filed as cell-based. As to conditions: HGF 20 ng/ml. The method, then:
(§1) Endothelial cell monolayers grown on gelatinized cover slips were rinsed with M199 and incubated with agonists in the same medium in a 37° C. incubator (5% CO2). Monolayers were then rinsed with PBS (3×2 min), fixed in 4% paraformaldehyde for 10 min, again rinsed with PBS (3×2 min), and permeabilized with 0.25% Triton X-100 for 5 min. Cells were then washed briefly with PBS (3×2 min), blocked with PBS containing 2% BSA for 30 min and incubated with 1 Unit/mL of Texas Red-X phalloidin (Molecular Probes, Eugene, Oreg.), β-catenin antibody (Transduction Laboratories, Lexington, Ky.), glycogen synthase kinase-3 β (GSK-3β) (Santa Cruz Biotechnology, Inc., Santa Cruz, Calif.), or mono-phosphorylated MLC antisera (see Garcia, J. G. N. et al. (2001) J. Clin. Invest. 108:689-711) for 1 hr. After washing with PBS (3×2 min), cover slips were mounted on slides using SlowFade mounting medium (Molecular Probes). Cells were analyzed using a 60× oil objective on a Nikon Eclipse TE 300 microscope. Images were captured by Sony Digital Photo camera DKC 5000. […]
The effect of HGF on the spatial localization of polymerized actin in human endothelial monolayers was investigated by immunofluorescent microscopy. […] F-actin staining was assessed with Texas red phalloidin and myosin light chain staining evaluated with anti-monophosphorylated myosin light chain polyclonal antibody.

The test system of assay [3] is human endothelial cells. Kind of assay: β-catenin immunofluorescent microscopy. The class given is cell-based. As to conditions: HGF-stimulated cells. The method, then:
as §1, with “5000. The same exposure time was applied to all samples within one experiment.” for “5000.”

In the case of “HGF: heparin-binding glycoprotein, multifunctional cytokine, ligand of c-Met; purchased from R&D Systems”, in assay [1], the “time at which PKCα activation is detectable (phospho-PKC immunoreactivity)” value amounted to 15 min and the “time of PKCα translocation to the membrane fraction” value came to 5 min. Besides, the F-actin staining entry in assay [2] is given as “rapid enhancement of F-actin staining spatially confined to the cortical cytoskeletal ring”. For the same substance, in assay [3], the β-catenin immunoreactivity entry is reported as “increased β-catenin immunoreactivity along cell borders”.
